According to the supplement of paper PMC10307832:

Assays:
Assay in all cases: relative viability (nuclei count vs DMSO), 5 days (fraction); higher = more cells survive
A549 = tested on: A549
Summary of the method: (§1)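 Each reported value is a median over duplicate plates. It expresses relative viability: treated-well nuclei count divided by vehicle-well nuclei count. Lung cancer cell lines in 1536-well plates were dosed by pin tool a day after seeding, alone with one drug or with a fixed anchor-drug dose plus five library-drug doses (not always all listed) in √10 steps, and nuclei were counted after 5 days.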

Calu-6 = tested on: Calu-6
Summary of the method: as §1

NCI-H520 = tested on: NCI-H520
Summary of the method: as §1

NCI-H1703 = tested on: NCI-H1703
Summary of the method: as §1

NCI-H1299 = tested on: NCI-H1299
Summary of the method: as §1

LK-2 = tested on: LK-2
Summary of the method: as §1

NCI-H522 = tested on: NCI-H522
Summary of the method: as §1

NCI-H1355 = tested on: NCI-H1355
Summary of the method: as §1

IA-LM = tested on: IA-LM
Summary of the method: as §1

COR-L 105 = tested on: COR-L 105
Summary of the method: as §1

LCLC-103H = tested on: LCLC-103H
Summary of the method: as §1

NCI-H1648 = tested on: NCI-H1648
Summary of the method: as §1

EBC-1 = tested on: EBC-1
Summary of the method: as §1

`COc1nc(C)cnc1NS(=O)(=O)c1cccnc1-c1ccc(-c2nnco2)cc1` [Zibotentan] + O=C(c1cc(Cc2n[nH]c(=O)c3ccccc23)ccc1F)N1CCN(C(=O)C2CC2)CC1 [Olaparib] (partner 8 µM) gave a relative viability (A549; first compound 0.08 µM) of 0.365, a relative viability (A549; first compound 0.253 µM) of 0.31 and a relative viability (A549; first compound 0.8 µM) of 0.333. For the same molecule, the relative viability (A549; first compound 2.53 µM) was 0.32, the relative viability (Calu-6; first compound 0.08 µM) was 0.61 and the relative viability (Calu-6; first compound 0.253 µM) was 0.518. For the same molecule, the relative viability (Calu-6; first compound 0.8 µM) was 0.621, the relative viability (Calu-6; first compound 2.53 µM) was 0.555 and the relative viability (NCI-H520; first compound 0.08 µM) was 0.282. The relative viability (NCI-H520; first compound 0.253 µM) was 0.296, the relative viability (NCI-H520; first compound 0.8 µM) was 0.252 and the relative viability (NCI-H520; first compound 2.53 µM) was 0.352. The relative viability (NCI-H1703; first compound 0.08 µM) was 0.476, the relative viability (NCI-H1703; first compound 0.253 µM) was 0.368 and the relative viability (NCI-H1703; first compound 0.8 µM) was 0.435. It also gave a relative viability (NCI-H1703; first compound 2.53 µM) of 0.292, a relative viability (NCI-H1299; first compound 0.08 µM) of 1.01 and a relative viability (NCI-H1299; first compound 0.253 µM) of 0.906. The relative viability (NCI-H1299; first compound 0.8 µM) was 0.973, the relative viability (NCI-H1299; first compound 2.53 µM) was 1 and the relative viability (LK-2; first compound 0.08 µM) was 0.945. It also gave a relative viability (LK-2; first compound 0.253 µM) of 0.521, a relative viability (LK-2; first compound 0.8 µM) of 0.75 and a relative viability (LK-2; first compound 2.53 µM) of 0.718. For the same molecule, the relative viability (NCI-H522; first compound 0.08 µM) was 0.65, the relative viability (NCI-H522; first compound 0.253 µM) was 0.75 and the relative viability (NCI-H522; first compound 0.8 µM) was 0.681. For the same molecule, the relative viability (NCI-H522; first compound 2.53 µM) was 0.703, the relative viability (NCI-H1355; first compound 0.08 µM) was 0.829 and the relative viability (NCI-H1355; first compound 0.253 µM) was 0.691. It also gave a relative viability (NCI-H1355; first compound 0.8 µM) of 0.751, a relative viability (NCI-H1355; first compound 2.53 µM) of 0.756 and a relative viability (IA-LM; first compound 0.08 µM) of 0.966. It also gave a relative viability (IA-LM; first compound 0.253 µM) of 0.86, a relative viability (IA-LM; first compound 0.8 µM) of 0.938 and a relative viability (IA-LM; first compound 2.53 µM) of 0.824. It also gave a relative viability (COR-L 105; first compound 0.08 µM) of 0.68, a relative viability (COR-L 105; first compound 0.253 µM) of 0.605 and a relative viability (COR-L 105; first compound 0.8 µM) of 0.721. It also gave a relative viability (COR-L 105; first compound 2.53 µM) of 0.784, a relative viability (LCLC-103H; first compound 0.08 µM) of 0.738 and a relative viability (LCLC-103H; first compound 0.253 µM) of 0.74. The relative viability (LCLC-103H; first compound 0.8 µM) was 0.696, the relative viability (LCLC-103H; first compound 2.53 µM) was 0.751 and the relative viability (NCI-H1648; first compound 0.08 µM) was 0.853. The relative viability (NCI-H1648; first compound 0.253 µM) was 0.503, the relative viability (NCI-H1648; first compound 0.8 µM) was 0.85 and the relative viability (NCI-H1648; first compound 2.53 µM) was 0.954. For the same molecule, the relative viability (EBC-1; first compound 0.08 µM) was 0.698, the relative viability (EBC-1; first compound 0.253 µM) was 0.713 and the relative viability (EBC-1; first compound 0.8 µM) was 0.827. For the same molecule, the relative viability (EBC-1; first compound 2.53 µM) was 0.651.

`O=c1cc(N2CCOCC2)oc2c(-c3cccc4c3sc3ccccc34)cccc12` + O=C(c1cc(Cc2n[nH]c(=O)c3ccccc23)ccc1F)N1CCN(C(=O)C2CC2)CC1 [Olaparib] (partner 8 µM) was tested, and the relative viability (A549; first compound 0.01 µM) was 0.429, the relative viability (A549; first compound 0.03162 µM) was 0.31 and the relative viability (A549; first compound 0.1 µM) was 0.295. The relative viability (A549; first compound 0.3162 µM) was 0.356, the relative viability (A549; first compound 1 µM) was 0.268 and the relative viability (Calu-6; first compound 0.01 µM) was 0.614. It also gave a relative viability (Calu-6; first compound 0.03162 µM) of 0.606, a relative viability (Calu-6; first compound 0.1 µM) of 0.602 and a relative viability (Calu-6; first compound 0.3162 µM) of 0.484. It also gave a relative viability (Calu-6; first compound 1 µM) of 0.657, a relative viability (NCI-H520; first compound 0.01 µM) of 0.42 and a relative viability (NCI-H520; first compound 0.03162 µM) of 0.406. It also gave a relative viability (NCI-H520; first compound 0.1 µM) of 0.366, a relative viability (NCI-H520; first compound 0.3162 µM) of 0.351 and a relative viability (NCI-H520; first compound 1 µM) of 0.338. For the same molecule, the relative viability (NCI-H1703; first compound 0.01 µM) was 0.548, the relative viability (NCI-H1703; first compound 0.03162 µM) was 0.274 and the relative viability (NCI-H1703; first compound 0.1 µM) was 0.411. The relative viability (NCI-H1703; first compound 0.3162 µM) was 0.446, the relative viability (NCI-H1703; first compound 1 µM) was 0.511 and the relative viability (NCI-H1299; first compound 0.01 µM) was 0.961. For the same molecule, the relative viability (NCI-H1299; first compound 0.03162 µM) was 0.946, the relative viability (NCI-H1299; first compound 0.1 µM) was 0.985 and the relative viability (NCI-H1299; first compound 0.3162 µM) was 0.974. The relative viability (NCI-H1299; first compound 1 µM) was 0.917, the relative viability (LK-2; first compound 0.01 µM) was 0.802 and the relative viability (LK-2; first compound 0.03162 µM) was 0.554. The relative viability (LK-2; first compound 0.1 µM) was 0.847, the relative viability (LK-2; first compound 0.3162 µM) was 0.722 and the relative viability (LK-2; first compound 1 µM) was 0.737. For the same molecule, the relative viability (NCI-H522; first compound 0.01 µM) was 0.59, the relative viability (NCI-H522; first compound 0.03162 µM) was 0.696 and the relative viability (NCI-H522; first compound 0.1 µM) was 0.739. For the same molecule, the relative viability (NCI-H522; first compound 0.3162 µM) was 0.602, the relative viability (NCI-H522; first compound 1 µM) was 0.572 and the relative viability (NCI-H1355; first compound 0.01 µM) was 0.712. The relative viability (NCI-H1355; first compound 0.03162 µM) was 0.675, the relative viability (NCI-H1355; first compound 0.1 µM) was 0.711 and the relative viability (NCI-H1355; first compound 0.3162 µM) was 0.709. The relative viability (NCI-H1355; first compound 1 µM) was 0.743, the relative viability (IA-LM; first compound 0.01 µM) was 0.883 and the relative viability (IA-LM; first compound 0.03162 µM) was 0.941. For the same molecule, the relative viability (IA-LM; first compound 0.1 µM) was 0.766, the relative viability (IA-LM; first compound 0.3162 µM) was 0.793 and the relative viability (IA-LM; first compound 1 µM) was 0.769. The relative viability (COR-L 105; first compound 0.01 µM) was 0.661, the relative viability (COR-L 105; first compound 0.03162 µM) was 0.756 and the relative viability (COR-L 105; first compound 0.1 µM) was 0.687. It also gave a relative viability (COR-L 105; first compound 0.3162 µM) of 0.694, a relative viability (COR-L 105; first compound 1 µM) of 0.575 and a relative viability (LCLC-103H; first compound 0.01 µM) of 0.718. For the same molecule, the relative viability (LCLC-103H; first compound 0.03162 µM) was 0.786, the relative viability (LCLC-103H; first compound 0.1 µM) was 0.771 and the relative viability (LCLC-103H; first compound 0.3162 µM) was 0.707. The relative viability (LCLC-103H; first compound 1 µM) was 0.749, the relative viability (NCI-H1648; first compound 0.03162 µM) was 0.787 and the relative viability (NCI-H1648; first compound 0.1 µM) was 1.28. For the same molecule, the relative viability (NCI-H1648; first compound 0.3162 µM) was 0.936, the relative viability (NCI-H1648; first compound 1 µM) was 1.17 and the relative viability (EBC-1; first compound 0.01 µM) was 0.709. The relative viability (EBC-1; first compound 0.03162 µM) was 0.667, the relative viability (EBC-1; first compound 0.1 µM) was 0.757 and the relative viability (EBC-1; first compound 0.3162 µM) was 0.788. It also gave a relative viability (EBC-1; first compound 1 µM) of 0.624.
